For orientation: GI50 means the concentration that inhibits growth by half. In general, TGI refers to the concentration giving total growth inhibition.

This is an account of results in PubChem BioAssay (NCI).

Several values for one entry are separate records, joined by “and”; a condition that tells them apart may be missing. Equal values may be shown once.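 Briefly, cells in 96-well plates were exposed to five compound concentrations for 48 h, and endpoints were estimated by linear interpolation. GI50 is the concentration that inhibits growth by half. TGI marks complete inhibition of growth.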

Holding throughout (assay): DTP human tumour cell line panel, 48 h
Test [1] has as its system LOX IMVI melanoma.
Test [2] concerns KM12 colon.
Test [3] relates to SK-MEL-5 melanoma.
In test [4] the test system is NCI/ADR-RES ovarian.
Test [5] concerns SF-268 CNS.
The test system of test [6] is IGROV1 ovarian.
For test [7], the system named is SK-MEL-2 melanoma.
The test system of test [8] is MDA-MB-435.
The subject of test [9] is MALME-3M melanoma.
Test [10] deals with SF-539 CNS.

In the case of `C=C(CN1CCc2ccccc2C1)c1ccc(/C=C/C(=O)Nc2ccccc2N)cc1`, the GI50 in test [1] is 3.09 µM; in test [2], 0.965 µM; in test [3], 13 µM; in [4] it was 4.27 µM; in test [5], 2.44 µM; in test [6], 4.46 µM. The GI50 in test [7] was 7.51 µM; in test [8] it was 4.89 µM; in test [9], 0.309 µM; in test [10], 13 µM. For the same compound, the TGI is 16.5 µM in [1]; above 100 µM in [2]; 31.4 µM in test [3]; above 100 µM in test [4]; 55.3 µM in test [5]; above 100 µM in [6]. The TGI in [7] was above 100 µM; in [8], 80.7 µM; in test [9], 8.04 µM; in [10], above 100 µM.

As for `Cc1c2ncccc2c(C)c2c1[nH]c1ccc(O)cc12`, the GI50 in [1] is 2.39 µM; in test [2] it was 7.19 µM and 7.87 µM; in test [3], 3.95 µM; in [4], 4.08 µM; in [5] it was 7.55 µM; in test [6] it was 7.29 µM and 11.6 µM. Further, the GI50 in [9] is 6.44 µM and 32.7 µM; in test [10] it was 4.85 µM. Besides, the TGI in test [1] is 6.61 µM; in test [2] it was 19.9 µM and 23.1 µM; in test [3], 20.4 µM and 15 µM; in test [4], 21 µM; in [5], 19.1 µM; in test [6] it was 21.5 µM and 102 µM. Besides, the TGI in test [7] was 97.5 µM; in test [8] it was 20.9 µM; in [9] it was 23.2 µM and 103 µM; in test [10] it was 20.8 µM.

As for `O=P(Oc1ccccc1)(Oc1ccccc1)C(O)c1ccccc1` (stereo not drawn), the GI50 in [1] was above 100 µM; in [2], 51 µM; in test [3] it was 53.1 µM; in test [4], above 100 µM; in test [5], above 100 µM; in test [6] it was 37.2 µM. The GI50 is 81.4 µM in test [7], 74 µM in test [8], 4.65 µM in test [9] and above 100 µM in [10]. Further, the TGI in test [1], in [2], in test [3], in [4], in [5] and in test [6] was above 100 µM each time. Besides, the TGI in test [7], in test [8], in test [9] and in test [10] was above 100 µM in each case.

For `COc1cc(-c2cc(C(=O)Nc3nc4ccccc4s3)nc3cc(-c4ccccc4)nn23)cc(OC)c1OC`, the GI50 in test [1] was 5.57 µM; in test [2], 22.6 µM; in [3], 13.8 µM; in [4], 19.6 µM; in [5], 4.5 µM; in test [6], 56.3 µM. The GI50 in test [7] is 11.2 µM; in test [8] it was 2.61 µM; in [9] it was 12.4 µM; in [10] it was 1.31 µM. Moreover, the TGI in [1] was above 100 µM; in test [2], above 100 µM; in test [3] it was above 100 µM; in test [4], above 100 µM; in test [5], 48.8 µM; in test [6], above 100 µM. Also, the TGI was determined as 27.7 µM in test [7], 40.3 µM in [8], 56.2 µM in test [9] and 9.09 µM in [10].

Regarding `CCN(CC)c1ccc2[nH]c3c(C(N)=O)cc(=O)c(=O)c=3oc2c1`, the GI50 in test [1] was 0.581 µM; in test [2] it was 2.94 µM; in test [3], 1.22 µM; in [4], 1.72 µM; in test [5], 1.98 µM; in test [6], 0.31 µM. The GI50 in [7] is 1.65 µM; in test [8], 0.377 µM; in test [9] it was 1.16 µM; in test [10] it was 0.597 µM. The TGI in test [1] turned out to be 6.3 µM; in test [2], 11.3 µM; in test [3], 2.49 µM; in test [4], 11.8 µM; in [5] it was 15.1 µM; in [6] it was 1.24 µM. Moreover, the TGI in test [7] worked out at 6.1 µM; in test [8], 9.78 µM; in test [9], 2.96 µM; in test [10], 14.1 µM.

On to `COc1c(O)cc2oc3cc(O)c(CC=C(C)C)c(O)c3c(=O)c2c1C/C=C(\C)CCC=C(C)C`, for which the GI50 was 5.49 µM in test [1]; 5.47 µM in test [2]; 5.62 µM in [3]; 5.99 µM in test [4]; 5.56 µM in [5]; 5.39 µM in [6]. In addition, the GI50 in [7] was 6.46 µM; in test [8] it was 5.77 µM; in [9], 6.34 µM; in test [10], 6.11 µM. Also, the TGI in test [1] is 10.5 µM; in [2], 9.91 µM; in test [3] it was 10.2 µM; in [4], 11.4 µM; in test [5], 10 µM; in [6] it was 10.4 µM. The TGI in [7] came out at 12.1 µM; in [8] it was 10.9 µM; in test [9], 12 µM; in test [10], 12 µM.

Consider `OCc1ccc(N(Cc2ccc(F)cc2)C2CCC2)cc1Cl`, for which the GI50 is 15.1 µM in [1]; 14.5 µM in [2]; 9.11 µM in [3]; 12.7 µM in [4]; 18.1 µM in test [5]; 0.0698 µM in test [6]. The GI50 was 4.89 µM in test [7], 16.2 µM in test [8], 16.2 µM in test [9] and 16.7 µM in [10]. Also, the TGI in test [1] amounted to 29.3 µM; in test [2] it was 28.7 µM; in test [3], 21.8 µM; in [4], 27.8 µM; in [5] it was 33.9 µM; in test [6], 0.339 µM. The TGI in test [7] is 20.1 µM; in test [8], 31.1 µM; in [9], 31.3 µM; in test [10], 31.3 µM.

Turning to `O=C(O)C(Cc1ccccc1-c1ccccc1)C(=O)O`, the TGI in test [1], in [2], in test [3], in [4], in [5] and in [6] was above 100 µM each time. Moreover, the TGI in [7], in test [8], in test [9] and in test [10] was above 100 µM each time.
